How the values were obtained:
Type in all cases: functional
CCRF-CEM = test: Growth inhibition of human CCRF-CEM cells after 48 hrs by SRB protein assay; conditions: for CC50: read-out: LC50 (the source's name)
[1] = Growth inhibition of human LOX MIVI cells after 48 hrs by SRB protein assay
RPMI-8226 = test: Growth inhibition of human RPMI8226 cells after 48 hrs by SRB protein assay; conditions: RPMI-8226, 48 h
UACC-62 = test: Growth inhibition of human UACC62 cells after 48 hrs by SRB protein assay; conditions: UACC-62, 48 h
MOLT-4 = test: Growth inhibition of human MOLT4 cells after 48 hrs by SRB protein assay; conditions: MOLT-4, 48 h
COLO 205 = test: Growth inhibition of human COLO205 cells after 48 hrs by SRB protein assay; conditions: COLO 205, 48 h
SK-MEL-5 = test: Growth inhibition of human SK-MEL-5 cells after 48 hrs by SRB protein assay; conditions: SK-MEL-5, 48 h
ACHN = test: Growth inhibition of human ACHN cells after 48 hrs by SRB protein assay
A498 = test: Growth inhibition of human A498 cells after 48 hrs by SRB protein assay; conditions: A498, 48 h; for CC50: read-out: LC50 (the source's name)
BT-549 = test: Growth inhibition of human BT549 cells after 48 hrs by SRB protein assay; conditions: BT-549, 48 h; for CC50: read-out: LC50 (the source's name)
HOP-62 = test: Growth inhibition of human HOP62 cells after 48 hrs by SRB protein assay; conditions: HOP-62, 48 h
HCT-15 = test: Growth inhibition of human HCT15 cells after 48 hrs by SRB protein assay; conditions: HCT-15, 48 h
K562 = test: Growth inhibition of human K562 cells after 48 hrs by SRB protein assay; conditions: K562, 48 h; for CC50: read-out: LC50 (the source's name)
NCI-H460 = test: Growth inhibition of human NCL-H460 cells after 48 hrs by SRB protein assay; conditions: NCI-H460, 48 h; for CC50: read-out: LC50 (the source's name)
HCC 2998 = test: Growth inhibition of human HCC2998 cells after 48 hrs by SRB protein assay; conditions: HCC 2998, 48 h
A549 = test: Growth inhibition of human A549 cells after 48 hrs by SRB protein assay; conditions: A549, 48 h
SK-OV-3 = test: Growth inhibition of human SK-OV-3 cells after 48 hrs by SRB protein assay; conditions: SK-OV-3, 48 h
SF-268 = test: Growth inhibition of human SF268 cells after 48 hrs by SRB protein assay; conditions: SF-268, 48 h
HOP-92 = test: Growth inhibition of human HOP92 cells after 48 hrs by SRB protein assay; conditions: HOP-92, 48 h
PC-3 = test: Growth inhibition of human PC3 cells after 48 hrs by SRB protein assay; conditions: PC-3, 48 h; for CC50: read-out: LC50 (the source's name)
[2] = Growth inhibition of human NCL-H226 cells after 48 hrs by SRB protein assay; conditions: NCL-H226, 48 h
M14 = test: Growth inhibition of human M14 cells after 48 hrs by SRB protein assay; conditions: M14, 48 h
RXF 393 = test: Growth inhibition of human RXF393 cells after 48 hrs by SRB protein assay; conditions: RXF 393, 48 h; for CC50: read-out: LC50 (the source's name)
[3] = Growth inhibition of human NCL-H23 cells after 48 hrs by SRB protein assay; conditions: NCL-H23, 48 h
[4] = Growth inhibition of human NCL-H522 cells after 48 hrs by SRB protein assay; conditions: NCL-H522, 48 h
SNB-19 = test: Growth inhibition of human SNB19 cells after 48 hrs by SRB protein assay; conditions: SNB-19, 48 h; for CC50: read-out: LC50 (the source's name)
[5] = read-out: LC50 (the source's name)

Compound: Clc1nc(Cl)c2ncn(Cc3ccccc3Cn3cnc4c(Cl)nc(Cl)nc43)c2n1
- GI50 (CCRF-CEM): 1410 nM
- TGI (CCRF-CEM): 3.09 µM
- CC50 (CCRF-CEM): 6.61 µM
- GI50 [1]: 1150 nM
- LC50 [1]: 6.61 µM
- TGI [1]: 2.75 µM
- GI50 (RPMI-8226): 550 nM
- TGI (RPMI-8226): 2.34 µM
- GI50 (UACC-62): 1740 nM
- LC50 (concentration killing 50% of cells) (UACC-62): 6.61 µM
- TGI (UACC-62): 3.39 µM
- GI50 (MOLT-4): 1660 nM
- LC50 (MOLT-4): 8.13 µM
- TGI (MOLT-4): 3.63 µM
- GI50 (COLO 205): 3.16 µM
- LC50 (COLO 205): > 100 µM
- TGI (COLO 205): > 100 µM
- GI50 (SK-MEL-5): 2240 nM
- LC50 (SK-MEL-5): 22.9 µM
- TGI (SK-MEL-5): 6.17 µM
- GI50 (ACHN): 1770 nM
- LC50 (ACHN): 5.75 µM
- TGI (ACHN): 3.24 µM
- GI50 (A498): 17 µM
- TGI (A498): 33.9 µM
- CC50 (A498): 67.6 µM
- GI50 (BT-549): 170 nM
- TGI (BT-549): 1.51 µM
- CC50 (BT-549): 5.01 µM
- GI50 (HOP-62): 21.9 µM
- LC50 (HOP-62): 72.4 µM
- TGI (HOP-62): 39.8 µM
- GI50 (HCT-15): 1.86 µM
- LC50 (HCT-15): 12.6 µM
- TGI (HCT-15): 4.47 µM
- GI50 (K562): 1950 nM
- TGI (K562): 4.47 µM
- CC50 (K562): 15.5 µM
- GI50 (NCI-H460): 3.98 µM
- TGI (NCI-H460): 17.4 µM
- CC50 (NCI-H460): 89.1 µM
- LC50 (HCC 2998): 21.4 µM
- TGI (HCC 2998): 4.9 µM
- GI50 (A549): 4.79 µM
- LC50 (A549): > 100 µM
- TGI (A549): 20.4 µM
- GI50 (SK-OV-3): 11.5 µM
- TGI (SK-OV-3): 31.6 µM
- CC50 (SK-OV-3; [5]): 87.1 µM
- GI50 (SF-268): 6.76 µM
- LC50 (SF-268): 95.5 µM
- TGI (SF-268): 26.9 µM
- GI50 (HOP-92): 1.91 µM
- LC50 (HOP-92): 9.12 µM
- TGI (HOP-92): 4.17 µM
- GI50 (PC-3): 2.24 µM
- TGI (PC-3): 6.76 µM
- CC50 (PC-3): 38.9 µM
- GI50 [2]: 3.09 µM
- LC50 [2]: 26.9 µM
- TGI [2]: 7.24 µM
- GI50 (M14): 15.8 µM
- LC50 (M14): 61.7 µM
- TGI (M14): 38.9 µM
- TGI (RXF 393): 3.47 µM
- CC50 (RXF 393): 7.08 µM
- GI50 [3]: 15.5 µM
- LC50 [3]: 67.6 µM
- TGI [3]: 32.4 µM
- GI50 [4]: 3.39 µM
- LC50 [4]: > 100 µM
- TGI [4]: 9.12 µM
- GI50 (SNB-19): 3.98 µM
- TGI (SNB-19): > 100 µM
- CC50 (SNB-19): > 100 µM

Compound: Clc1nc(Cl)c2ncn(Cc3cccc(Cn4cnc5c(Cl)nc(Cl)nc54)c3)c2n1
- GI50 (CCRF-CEM): 2230 nM
- TGI (CCRF-CEM): 5.37 µM
- CC50 (CCRF-CEM): > 100 µM
- GI50 [1]: 2230 nM
- LC50 [1]: 21.9 µM
- TGI [1]: 5.62 µM
- GI50 (RPMI-8226): 2570 nM
- TGI (RPMI-8226): 11.2 µM
- CC50 (RPMI-8226; [5]): > 100 µM
- GI50 (UACC-62): 2390 nM
- LC50 (concentration killing 50% of cells) (UACC-62): 22.4 µM
- TGI (UACC-62): 5.88 µM
- GI50 (MOLT-4): 3460 nM
- LC50 (MOLT-4): > 100 µM
- TGI (MOLT-4): 13.8 µM
- GI50 (COLO 205): 3.38 µM
- LC50 (COLO 205): > 100 µM
- TGI (COLO 205): > 11.2 µM
- GI50 (SK-MEL-5): 2450 nM
- LC50 (SK-MEL-5): 22.4 µM
- TGI (SK-MEL-5): 5.88 µM
- GI50 (ACHN): 2510 nM
- LC50 (ACHN): 21.4 µM
- TGI (ACHN): 6.16 µM
- GI50 (A498): 4.57 µM
- TGI (A498): 17.4 µM
- CC50 (A498): 46.8 µM
- GI50 (BT-549): 3380 nM
- TGI (BT-549): 11 µM
- CC50 (BT-549): 34.7 µM
- GI50 (HOP-62): 5.01 µM
- LC50 (HOP-62): 51.3 µM
- TGI (HOP-62): 17.8 µM
- GI50 (HCT-15): 5.75 µM
- LC50 (HCT-15): 74.1 µM
- TGI (HCT-15): 22.4 µM
- GI50 (K562): 3090 nM
- TGI (K562): 17 µM
- CC50 (K562): > 100 µM
- GI50 (NCI-H460): 3.71 µM
- TGI (NCI-H460): 13.5 µM
- CC50 (NCI-H460): 58.9 µM
- GI50 (HCC 2998): 2390 nM
- LC50 (HCC 2998): 25.7 µM
- TGI (HCC 2998): 7.07 µM
- GI50 (A549): 11.2 µM
- LC50 (A549): 61.6 µM
- TGI (A549): 26.3 µM
- GI50 (SF-268): 12.9 µM
- LC50 (SF-268): 75.9 µM
- TGI (SF-268): 31.6 µM
- GI50 (HOP-92): 6.16 µM
- LC50 (HOP-92): 70.8 µM
- TGI (HOP-92): 22.4 µM
- GI50 (PC-3): 3.98 µM
- TGI (PC-3): 13.5 µM
- CC50 (PC-3): 40.7 µM
- GI50 [2]: 4.78 µM
- LC50 [2]: > 100 µM
- TGI [2]: 26.9 µM
- GI50 (M14): 2.75 µM
- LC50 (M14): 33.9 µM
- TGI (M14): 7.58 µM
- GI50 (RXF 393): 1900 nM
- TGI (RXF 393): 3.71 µM
- CC50 (RXF 393): 7.24 µM
- GI50 [3]: 8.51 µM
- LC50 [3]: 52.5 µM
- TGI [3]: 21.9 µM
- GI50 [4]: 2.88 µM
- LC50 [4]: 41.7 µM
- TGI [4]: 7.07 µM
- GI50 (SNB-19): 3.02 µM
- TGI (SNB-19): 13.8 µM
- CC50 (SNB-19): 60.2 µM
